The text below walks through data of US6897319B2, “Useful aroyl pyrrole heteroaryl methanones and methanols” (Ortho-McNeil Pharmaceutical, Inc., priority 2001, dated 2005).

Assay [1] concerns carrageenan-induced thermal hyperalgesia. The assay can be described thus: Carrageenan Paw Hyperalgesia Test. Type of assay: in vivo. To be noted: mouse, orally 30 mg per Kg, 90 minutes following oral dosing. An excerpt: Procedure for Testing Hyperalgesic Effect
The procedure used to detect the antihyperalgesic activity of a compound of the present invention for which there is a good correlation with human efficacy is the Carrageenan Paw Hyperalgesia Test (as described in Sammons, et al., Brain Research, 2000, 876, 48-54).
Male, CD-1 mice (Charles River Laboratories) weighing 22-30 g each at the time of testing are housed in a climate-controlled, virus free environment for at least 7 days prior to testing. Food and water are available ad libitum up to test time.
Test mice are […] by injecting an irritant (e.g., 0.02 mL of a 1.0% carrageenan solution in 0.9% saline) subcutaneously into the subplantar tissue of one of the hind paws to stimulate an acute inflammatory reaction. The response of the animal following carrageenan injection is subsequently evaluated at a fixed later time and verified to be hyperalgesic relative to a baseline response obtained immediately prior to carrageenan injection.
The mice were dosed orally with either Compound 1 dissolved in a suspension of 20% hydroxypropyl beta cyclodextrin in distilled water or with vehicle alone at a fixed time following carrageenan injection. […] Response latencies were subsequently evaluated at fixed times following oral dosing to assess reversal of hyperalgesia caused by treatment with Compound 1 as compared to vehicle treatment. […]

The test system of assay [2] is carrageenan-induced paw swelling. The assay can be described thus: Carrageenan Paw Edema Model. The following applies: rat, 100 mg/kg p.o., 2 hours post carrageenan administration. Format: in vivo. An excerpt:
Procedure for Testing Antiinflammatory Response
The procedure used to detect the antiinflammatory activity of a compound of the present invention for which there is a good correlation with human efficacy is the Carrageenan Paw Edema Model (as described in Levy, L., Carrageenan Paw Edema in the Mouse, Life Sci., 1969, 8, 11, 601-6).
Male, Sprague-Dawley rats (Charles River Laboratories) 175-200 g are housed in a climate-controlled, virus free environment for at least 5 days prior to testing.
Carrageenan is prepared in saline (0.5% carrageenan solution in 0.9% saline) and injected in a 0.1 mL volume into the footpad of the rat. Test compound is administered orally by gavage 30-60 minutes prior to footpad challenge. Paws are dipped into a mercury plethysmograph edema computer (Buxco Electronics) and the foot displacement is recorded at 0 time and at various times after challenge with carrageenan. Rats treated with test compound are compared to vehicle controls for any inhibition of carrageenan induced paw swelling.
The % Inhibition (% I) by a compound tested was calculated according to the formula: %I=100−[100×(TCPV/VCPV)]; wherein TCPV is defined as the mean Change in Paw Volume in the Treated group and VCPV is the mean Change in Paw Volume in the Vehicle group.
In general terms: In the carrageenan paw model, swelling and tenderness develop within hours.

For `Cn1cc(C(=O)c2ccncc2)cc1C(=O)c1ccc(Cl)cc1` [Cpd 1, [5-(4-Chlorobenzoyl)-1-methyl-1H-pyrrol-3-yl]pyridin-4-ylmethanone], in assay [1], the “% Recovery (reversal of hyperalgesia)” value is 84%. Besides, the “% inhibition of carrageenan-induced paw swelling” value in assay [2] is listed as 35%.
